The source of these data is patent publication US12528769B2, “Synthesis of (2S,5R)-5-(2-chlorophenyl)-1-(2′-methoxy-[1,1′-biphenyl]-4-carbonyl)pyrrolidine-2-carboxylic acid” (EPICS THERAPEUTICS, priority 2020, dated 2026).

Read-outs that look alike come from different tables or passages of the source.

Common to all, as to type: physicochemical
One data set can be described thus: Solubility in water. As to conditions: for Native pH: 150 mg material in 1.0 mL deionized water, before pH adjustment; for solubility: deionized water, pH 7.4, aqueous buffer, thermodynamic from solid. As for the experimental part:
Method. The solubility in water was studied as described hereafter. 150 mg of the studied materials of (1), (1·Na) and (1·K) were transferred to a glass vial and 1.0 mL of deionized water was added, vortex and ultrasonic treatment cycles were applied during 5 min. Then pH was checked and adjusted to pH=9.0-10.0 range by accurate addition of 2M aqueous solution of NaOH for (1) and (1·Na) or KOH for (1·K). Then several cycles of vortex and ultrasonic treatment were applied for 30 min. pH was adjusted to pH=7.2-7.6 range by careful addition of NaOH or KOH or HCl aqueous solutions. Vortex and ultrasonic treatment cycles and pH adjustments were repeated until pH stabilized at pH=7.2-7.6 range. Then the suspensions were centrifuged at 3000 rpm and supernatant was filtered thought membrane filter. The resulting filtrate was diluted in 1000 folds with DMSO and analyzed by HPLC against standard solution with known concentration.

Data set [1] is described as follows: Forced degradation: photolytic stability. The following applies: for Photolytic stability, purity (%): solutions 1 mg/mL in ACN/water (3:7), cool daylight lamp, around 22° C.; for Initial purities, purity (%): T0, baseline of the photolytic and thermal stability studies; for Decrease of purity in the photolytic stability assay: after 3 weeks. As to the method: For photolytic stability, cool daylight lamp OSRAM DULUX TWIST 23W 1600 lm 6500 K located in 20 cm distance from the studied samples was used. Samples were prepared at 1 mg/mL concentration in ACN/water (3:7 v/v) solution and exposed to light in capped glass vials placed on reflective surface at ambient temperature (around 22° C.).
(§1) Samples were analyzed by RP-HPLC and Chiral HPLC at TO, after 1 week and after 3 weeks. For RP-HPLC analysis samples were analyzed directly from solutions used for stability study. For Chiral HPLC, aliquots were evaporated in Genevac at 40° C. and re-dissolved in the mobile phase.

Data set [2] in a line: Forced degradation: thermal stability. The following applies: for Thermal stability, purity (%): solids at 115° C.; for Decrease of purity in the thermal stability assay: after 3 weeks. As to the method: For thermal stability powders were exposed to elevated temperature in capped glass vials kept inside thermostatic oven at 115° C.
as §1

The mark [3] stands for this setting: water, pH adjusted to 7.2-7.6, filtrate analysed by HPLC, read-out: Maximal solubility pH 7.4.

On to `COc1ccccc1-c1ccc(C(=O)N2[C@@H](c3ccccc3Cl)CC[C@H]2C(=O)[O-])cc1.[K+]` [1·K], for which the “Native pH” value in “Solubility in water” stood at 7. For the same compound, the “Maximal solubility pH 7.4” value in the data set “Solubility in water” (water, pH adjusted to 7.2-7.6, filtrate analysed by HPLC) is reported as 87 mg/mL.

Consider `COc1ccccc1-c1ccc(C(=O)N2[C@@H](c3ccccc3Cl)CC[C@H]2C(=O)[O-])cc1.[Na+]` [1·Na, sodium (2S,5R)-5-(2-chlorophenyl)-1-(2′-methoxy-[1,1′-biphenyl]-4-carbonyl)pyrrolidine-2-carboxylate], for which the “Native pH” value in the data set “Solubility in water” worked out at 7. The solubility – broadly, the dissolved amount per volume that the medium holds – is 129 mg/mL in the data set “Solubility in water” (setting [3]) and roughly 130 mg/mL in “Solubility in water” (water, read-out: Aqueous solubility (confirmed)). In “Solubility in water” (water, pH 7.4), the “Increase of aqueous solubility compared with the free acid (1)” value was 2 fold. For the same compound, the “Increase of aqueous solubility compared with the potassium salt (1·K)” value in the data set “Solubility in water” (water, pH 7.4) was found to be 1.5 fold. Further, the figures for the “Photolytic stability, purity (%)” value in data set [1] (1 week) and in data set [1] (3 weeks) were 98.5% and 97.0%, respectively. In data set [1], the “Initial purities, purity (%)” value is on record as 99.3%. The “Decrease of purity in the photolytic stability assay” value in data set [1] came out at 2.3%. In addition, the “Thermal stability, purity (%)” value is given as 99.1% in data set [2] (1 week) and 98.9% in data set [2] (3 weeks). Besides, the “Decrease of purity in the thermal stability assay” value in data set [2] was 0.4%.

With `COc1ccccc1-c1ccc(C(=O)N2[C@@H](c3ccccc3Cl)CC[C@H]2C(=O)O)cc1` [compound 1, (2S,5R)-5-(2-chlorophenyl)-1-(2′-methoxy-[1,1′-biphenyl]-4-carbonyl)pyrrolidine-2-carboxylic acid], the “Native pH” value in the data set “Solubility in water” is 5. Further, the “Solubility in water (in words)” value in “Solubility in water” (acid form) is on record as “poorly soluble in water”. Moreover, the solubility in “Solubility in water” (setting [3]) was greater than 64 mg/mL. The “Photolytic stability, purity (%)” value in data set [1] (1 week) is 96.7%; in data set [1] (3 weeks), 75.9%. The “Initial purities, purity (%)” value in data set [1] turned out to be 99.3%. Also, the “Decrease of purity in the photolytic stability assay” value in data set [1] came out at 23.6%. Besides, the “Thermal stability, purity (%)” value in data set [2] (1 week) is on record as 88.5%; in data set [2] (3 weeks), 71.4%. In addition, in data set [2], the “Decrease of purity in the thermal stability assay” value worked out at 28.1%.
